Reference: patent US9730937B2, “RAF kinase modulator compounds and methods of use thereof” (AMBIT BIOSCIENCES CORPORATION, priority 2008, dated 2017)
Where a name gives a salt, the structure may show the parent alone. Read-outs that look alike come from different tables or passages of the source.

System: panel of 290 distinct kinases (321 in the larger panel), excluding mutant variants
[1] = asterisk: panel of 321 distinct kinases
[2] = no asterisk: panel of 290 distinct kinases

Structure (SMILES)	S35 [1]	S35 [2]
COCCOc1cc2ncnc(Oc3cccc(NC(=O)Nc4cc(C(F)(F)F)nn4C)c3)c2cc1OC [Ex 220, 1-{3-[6-methoxy-7-(2-methoxyethoxy)quinazolin-4-yloxy]phenyl}-3-[1-methyl-3-(trifluoromethyl)-1H-pyrazol-5-yl]urea]	C* (0.20 < C ≦ 0.40)	
COCCOc1cc2ncnc(Oc3cccc(NC(=O)Nc4cc(C(F)(F)F)nn4-c4ccccc4)c3)c2cc1OC [Ex 221, 1-{3-[6-methoxy-7-(2-methoxyethoxy)quinazolin-4-yloxy]phenyl}-3-[1-phenyl-3-(trifluoromethyl)-1H-pyrazol-5-yl]urea]	C* (0.20 < C ≦ 0.40)	
COCCOc1cc2ncnc(Oc3cccc(NC(=O)Nc4ccc(C(F)(F)F)c(F)c4)c3)c2cc1OC [Ex 222, 1-(3-fluoro-4-(trifluoromethyl)phenyl)-3-(3-(6-methoxy-7-(2-methoxyethoxy)quinazolin-4-yloxy)phenyl)urea]	C* (0.20 < C ≦ 0.40)	
COCCOc1cc2ncnc(Oc3cccc(NC(=O)Nc4ccc(C(F)(F)F)c(OC)c4)c3)c2cc1OC [Ex 223, 1-(3-methoxy-4-(trifluoromethyl)phenyl)-3-(3-(6-methoxy-7-(2-methoxyethoxy)quinazolin-4-yloxy)phenyl)urea]	C* (0.20 < C ≦ 0.40)	
CCOC(=O)Cn1nc(C(C)(C)C)cc1NC(=O)Nc1cccc(Oc2ncnc3cc(OCCOC)c(OC)cc23)c1 [Ex 224, ethyl 2-[3-tert-butyl-5-(3-{3-[6-methoxy-7-(2-methoxyethoxy)quinazolin-4-yloxy]phenyl}ureido)-1H-pyrazol-1-yl]acetate hydrochloride]	A* (A ≦ 0.10)	
COCCOc1cc2ncnc(Oc3cccc(NC(=O)Nc4cc(C(F)(F)F)n(-c5ccccc5)n4)c3)c2cc1OC [Ex 225, 1-{3-[6-methoxy-7-(2-methoxyethoxy)quinazolin-4-yloxy]phenyl}-3-[1-phenyl-5-(trifluoromethyl)-1H-pyrazol-3-yl]urea]	C* (0.20 < C ≦ 0.40)	
COCCOc1cc2ncnc(Oc3cccc(NC(=O)Nc4cc(C(F)(F)F)nn4-c4ccc(F)cc4)c3)c2cc1OC [Ex 226, 1-[1-(4-fluorophenyl)-3-(trifluoromethyl)-1H-pyrazol-5-yl]-3-{3-[6-methoxy-7-(2-methoxyethoxy)quinazolin-4-yloxy]phenyl}urea]	C* (0.20 < C ≦ 0.40)	
COCCOc1cc2ncnc(Oc3cccc(NC(=O)Nc4cc(C(F)(F)F)nn4-c4ccc(C)cc4)c3)c2cc1OC [Ex 227, 1-{3-[6-methoxy-7-(2-methoxyethoxy)quinazolin-4-yloxy]phenyl}-3-[1-p-tolyl-3-(trifluoromethyl)-1H-pyrazol-5-yl]urea]	C* (0.20 < C ≦ 0.40)	
COCCOc1cc2ncnc(Oc3cccc(NC(=O)Nc4cc(C(C)(CF)CF)nn4-c4ccccc4)c3)c2cc1OC [Ex 228, 1-[3-(1,3-difluoro-2-methylpropan-2-yl)-1-phenyl-1H-pyrazol-5-yl]-3-{3-[6-methoxy-7-(2-methoxyethoxy)quinazolin-4-yloxy]phenyl}urea]	D* (D > 0.40)	
COCCOc1cc2ncnc(Oc3cccc(NC(=O)Nc4cc(C(F)(F)F)no4)c3)c2cc1OC [Ex 229, 1-(3-(6-methoxy-7-(2-methoxyethoxy)quinazolin-4-yloxy)phenyl)-3-(3-(trifluoromethyl)isoxazol-5-yl)urea]	C* (0.20 < C ≦ 0.40)	
COCCOc1cc2ncnc(Sc3cccc(NC(=O)Nc4cc(C(C)(CF)CF)on4)c3)c2cc1OC [Ex 230, 1-[5-(1,3-difluoro-2-methylpropan-2-yl)isoxazol-3-yl]-3-{3-[6-methoxy-7-(2-methoxyethoxy)quinazolin-4-ylthio]phenyl}urea]	C* (0.20 < C ≦ 0.40)	
COCCOc1cc2ncnc(Sc3cccc(NC(=O)Nc4ccc(C(F)(F)F)c(F)c4)c3)c2cc1OC [Ex 231, 1-(3-fluoro-4-(trifluoromethyl)phenyl)-3-(3-(6-methoxy-7-(2-methoxyethoxy)quinazolin-4-ylthio)phenyl)urea]	B* (0.10 < B ≦ 0.20)	
COCCOc1cc2ncnc(Sc3cccc(NC(=O)Nc4cc(C(C)C)on4)c3)c2cc1OC [Ex 232, 1-(5-isopropylisoxazol-3-yl)-3-(3-(6-methoxy-7-(2-methoxyethoxy)quinazolin-4-ylthio)phenyl)urea]	C* (0.20 < C ≦ 0.40)	
COCCOc1cc2ncnc(Sc3cccc(NC(=O)Nc4ccc(C(F)(F)F)c(OC)c4)c3)c2cc1OC [Ex 233, 1-(3-methoxy-4-(trifluoromethyl)phenyl)-3-(3-(6-methoxy-7-(2-methoxyethoxy)quinazolin-4-ylthio)phenyl)urea]	C* (0.20 < C ≦ 0.40)	
COCCOc1cc2ncnc(Sc3cccc(NC(=O)Nc4cc(C(C)(C)F)no4)c3)c2cc1OC [Ex 234, 1-(3-(2-fluoropropan-2-yl)isoxazol-5-yl)-3-(3-(6-methoxy-7-(2-methoxyethoxy)quinazolin-4-ylthio)phenyl)urea]	C* (0.20 < C ≦ 0.40)	
COCCOc1cc2ncnc(Sc3cccc(NC(=O)Nc4cc(C5CCCC5)on4)c3)c2cc1OC [Ex 235, 1-(5-cyclopentylisoxazol-3-yl)-3-(3-(6-methoxy-7-(2-methoxyethoxy)quinazolin-4-ylthio)phenyl)urea]	C* (0.20 < C ≦ 0.40)	

Structure (SMILES)	S35 [1]	S35 [2]
COCCOc1cc2ncnc(Sc3cccc(NC(=O)Nc4cc(C(C)(C)C)nn4-c4ccccc4)c3)c2cc1OC [Ex 236, 1-(3-tert-butyl-1-phenyl-1H-pyrazol-5-yl)-3-(3-(6-methoxy-7-(2-methoxyethoxy)quinazolin-4-ylthio)phenyl)urea]	D* (D > 0.40)	
CCOC(=O)Cn1nc(C(C)(C)C)cc1NC(=O)Nc1cccc(Sc2ncnc3cc(OCCOC)c(OC)cc23)c1 [Ex 237, ethyl 2-[3-tert-butyl-5-(3-{3-[6-methoxy-7-(2-methoxyethoxy)quinazolin-4-ylthio]phenyl}ureido)-1H-pyrazol-1-yl]acetate]	C* (0.20 < C ≦ 0.40)	
COCCOc1cc2ncnc(Sc3cccc(NC(=O)Nc4cc(C(C)(CF)CF)nn4-c4ccccc4)c3)c2cc1OC [Ex 238, 1-[3-(1,3-difluoro-2-methylpropan-2-yl)-1-phenyl-1H-pyrazol-5-yl]-3-{3-[6-methoxy-7-(2-methoxyethoxy)quinazolin-4-ylthio]phenyl}urea]	D* (D > 0.40)	
COCCOc1cc2ncnc(Sc3cccc(NC(=O)Nc4cc(C(F)(F)F)nn4C)c3)c2cc1OC [Ex 239, 1-{3-[6-methoxy-7-(2-methoxyethoxy)quinazolin-4-ylthio]phenyl}-3-[1-methyl-3-(trifluoromethyl)-1H-pyrazol-5-yl]urea]	D* (D > 0.40)	
COCCOc1cc2ncnc(Sc3cccc(NC(=O)Nc4cc(C(F)(F)F)nn4-c4ccc(F)cc4)c3)c2cc1OC [Ex 242, 1-[1-(4-fluorophenyl)-3-(trifluoromethyl)-1H-pyrazol-5-yl]-3-{3-[6-methoxy-7-(2-methoxyethoxy)quinazolin-4-ylthio]phenyl}urea]	C* (0.20 < C ≦ 0.40)	
COCCOc1cc2ncnc(Sc3cccc(NC(=O)Nc4cc(C(F)(F)F)nn4-c4ccc(C)cc4)c3)c2cc1OC [Ex 243, 1-{3-[6-methoxy-7-(2-methoxyethoxy)quinazolin-4-ylthio]phenyl}-3-[1-p-tolyl-3-(trifluoromethyl)-1H-pyrazol-5-yl]urea]	C* (0.20 < C ≦ 0.40)	
COCCOc1cc2ncnc(Sc3cccc(NC(=O)Nc4cc(C(F)(F)F)n(-c5ccccc5)n4)c3)c2cc1OC [Ex 244, 1-{3-[6-methoxy-7-(2-methoxyethoxy)quinazolin-4-ylthio]phenyl}-3-[1-phenyl-5-(trifluoromethyl)-1H-pyrazol-3-yl]urea]	C* (0.20 < C ≦ 0.40)	
COc1cc2ncnc(Sc3cccc(NC(=O)Nc4cc(C(C)(C)F)no4)c3)c2cc1OCCCN1CCS(=O)(=O)CC1 [Ex 245, 1-(3-(2-fluoropropan-2-yl)isoxazol-5-yl)-3-(3-(7-methoxy-6-(4,4-dioxo-3-thiomorpholinopropoxy)quinazolin-4-ylthio)phenyl)urea]	C* (0.20 < C ≦ 0.40)	
COc1cc2ncnc(Sc3cccc(NC(=O)Nc4ccc(OC)c(C(F)(F)F)c4)c3)c2cc1OCCCN1CCS(=O)(=O)CC1 [Ex 246, 1-(4-methoxy-3-(trifluoromethyl)phenyl)-3-(3-(7-methoxy-6-(3-(4,4-dioxothiomorpholino)propoxy)quinazolin-4-ylthio)phenyl)urea]	C* (0.20 < C ≦ 0.40)	
COCCOc1cc2ncnc(Sc3cccc(NC(=O)Nc4cc(C(C)(C)C)no4)c3)c2cc1OCCOC [Ex 247, 1-(3-(6,7-bis(2-methoxyethoxy)quinazolin-4-ylthio)phenyl)-3-(3-tert-butylisoxazol-5-yl)urea]		C (0.20 < C ≦ 0.40)
COc1cc2c(Sc3cccc(NC(=O)Nc4ccc(OC)c(C(F)(F)F)c4)c3)ncnc2cc1OCCN1CCOCC1 [Ex 249, 1-(4-methoxy-3-(trifluoromethyl)phenyl)-3-(3-(6-methoxy-7-(2-morpholinoethoxy)quinazolin-4-ylthio)phenyl)urea]	C* (0.20 < C ≦ 0.40)	
COc1cc2c(Oc3cccc(NC(=O)Nc4ccc(OC)c(C(F)(F)F)c4)c3)ncnc2cc1OCCN1CCOCC1 [Ex 250, 1-(4-methoxy-3-(trifluoromethyl)phenyl)-3-(3-(6-methoxy-7-(2-morpholinoethoxy)quinazolin-4-yloxy)phenyl)urea]	C* (0.20 < C ≦ 0.40)	
COc1cc2c(Oc3cccc(NC(=O)Nc4cc(C(C)(C)F)no4)c3)ncnc2cc1OCCN1CCOCC1 [Ex 251, 1-(3-(2-fluoropropan-2-yl)isoxazol-5-yl)-3-(3-(6-methoxy-7-(2-morpholinoethoxy)quinazolin-4-yloxy)phenyl)urea]	C* (0.20 < C ≦ 0.40)	
COc1cc2ncnc(Oc3cccc(NC(=O)Nc4cnn(C(C)(C)C)c4)c3)c2cc1OC [Ex 252, 1-(1-tert-butyl-1H-pyrazol-4-yl)-3-(3-(6,7-dimethoxyquinazolin-4-yloxy)phenyl)urea]		C (0.20 < C ≦ 0.40)
COc1cc2ncnc([S+]([O-])c3cccc(NC(=O)Nc4cc(C(C)(C)C)on4)c3)c2cc1OC (centres unmarked) [Ex 253, 1-(5-tert-butylisoxazol-3-yl)-3-(3-(6,7-dimethoxyquinazolin-4-ylsulfinyl)phenyl)urea]		C (0.20 < C ≦ 0.40)
COc1cc2ncnc(Oc3cccc(NC(=O)Nc4cc(C(F)(F)F)no4)c3)c2cc1OC [Ex 254, 1-(3-(6,7-dimethoxyquinazolin-4-yloxy)phenyl)-3-(3-(trifluoromethyl)isoxazol-5-yl)urea]	C* (0.20 < C ≦ 0.40)	
